{
  "source": "patent US20260284113A1",
  "about": "“COMPOSITIONS AND METHODS FOR TREATING PERIPHERAL VASCULAR DISEASE” (MAYO FOUNDATION FOR MEDICAL EDUCATION AND RESEARCH, priority 2022, published 2026)",
  "tested_on": "HUVECs",
  "assay": "Matrigel tube formation assay",
  "format": "cell-based, human",
  "conditions": "HUVECs on Matrigel, six hours; PEP 2.5×10^11 vesicles/mL, VEGF 100 ng/ml",
  "protocol": "96-well plates (Corning, Inc., Corning, NY) were pre-coated with MATRIGEL (Corning Life Sciences, Corning, NY) and allowed to solidify for one hour at 37° C. before cell seeding. GFP-tagged HUVECs (1×10^4 cells/well) were then added to individual wells in medium designated treatment. Images were acquired at time 0, one hour, three hours, and six hours post-treatment with an inverted microscope (DMI6000 B, Leica Microsystems GmbH, Wetzlar, Germany). All images were analyzed with Angiotool (Zudaire et al., 2011, PLoS One 6:e27385).",
  "data": [
    {"substance": "VEGF", "values": [
      {"measurement": "number of junctions per field", "value": 59.75},
      {"measurement": "total length of branches per field", "value": 2459.59, "unit": "pixels"}
    ]}
  ]
}
